The assay concerns Musca domestica first instars. Description: Development of Musca domestica larvae on cattle dung following oral treatment of the animal (feed-through test). Type of assay: in vivo. The following applies: cattle 300 kg, 3 g active compound in capsule on three consecutive days, dung samples. The text has this: Test for the development of Musca domestica larvae on cattle dung following oral treatment of the animal with active-compound-comprising formulation (feed-through test) Cattle 300 kg in weight are fed on three consecutive days with in each case 3 g of active compound in a capsule formulation. Dung samples of treated animals are populated with Musca domestica first instars, and the development into adult flies was monitored in comparison with the development of dung samples of an untreated control. Those substances which reliably prevent the development of adults over a period of four weeks are assessed as active.

We go through 1 compound from patent publication US20050214336A1, “Parasite control in animals” (priority 2002, published 2005).

Molecules are shown by their SMILES.

In the case of `CCC(C)(C)C(=O)OC1=C(c2ccc(Cl)cc2Cl)C(=O)OC12CCCCC2` [compound A, 2,2-dimethyl-, 3-(2,4-dichlorophenyl)-2-oxo-1-oxaspiro[4,5]dec-3-en-4-yl-butanoate], for the setting “after day 3, long-term (period of four weeks)”, the “long-term activity (prevention of development into adult flies)” value was determined as 100%. For the same compound, the “activity (prevention of development into adult flies)” value (up to day 3 after the treatment) was 50%.
